Experimental data published in PMC12238850, “Molecular determinants for recognition of serotonylated chromatin” (Nucleic Acids Research, 2025).
Positions count from the first letter of the chain named. Like-named read-outs stand apart in the source and are kept apart here.

Columns and labels:
Assay type in all cases: binding
[1] = target: T1, TAF3 S880A (GST-tagged PHD) (Mus musculus, UniProt Q5HZG4, S880A); assay: ITC of GST-tagged Taf3-PHD S880A
T1 construct: Mus musculus Taf3-PHD domain (residues 857–924); made in house; host or cells: E. coli BL21(DE3)
T1 sequence (Q5HZG4 857-924 S880A): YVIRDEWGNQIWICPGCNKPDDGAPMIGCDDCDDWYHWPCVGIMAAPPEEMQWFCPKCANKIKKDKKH
Source text: (§1) The coding sequences of Mus musculus Taf3-PHD domain (residues 857–924) and Homosapiens PHF2 (1–66), PHF8 (37–102), and BPTF(2) (2865–2921) were cloned into the pGEX2T-derived vector, pRP265NB, for bacterial expression of GST-tagged proteins. Note that the PHD fingers of M. musculus Taf3 and H. sapiens TAF3 differ in a single amino acid. A901 in mouse corresponds to T899 in human. Here, amino acid numbering corresponds to mouse Taf3 isoform 1 with UniProt ID: Q5HZG4, accessible at https://www.uniprot.org/uniprotkb/Q5HZG4/entry. Single or double mutations were introduced by mutagenesis polymerase chain reaction and validated by Sanger sequencing. A single colony of freshly transformed BL21(DE3) Escherichia coli bacteria with the corresponding construct was grown in Luria broth (LB) medium supplemented with 50 μg/ml ampicillin until an OD600 of 0.7. […]
(§2) ITC experiments were performed at 20°C with a MicroCal VP-ITC microcalorimeter (Malvern) by sequential injection of 10 μl at 300 μM histone peptide during 20 s into the sample cell containing 30 or 15 μM of GST-Taf3 (wild type or mutant) or GST-BPTF, GST-PHF2, and GST-PHF8 PHDs in ITC buffer (100 mM NaCl, 20 mM Tris–HCl, pH 7.5). […] ITC data were subsequently analysed and fitted with the one-site binding model in the MicroCal ITC Origin Analysis software 7.0 (Table 1, Figs 3B and 5A, Supplementary Table S3, and Supplementary Fig. S10). […]

[2] = target: T2, TAF3 W894F (GST-tagged PHD) (Mus musculus, UniProt Q5HZG4, W894F); assay: ITC of GST-tagged Taf3-PHD W894F
T2 construct: Mus musculus Taf3-PHD domain (residues 857–924); made in house; host or cells: E. coli BL21(DE3)
T2 sequence (Q5HZG4 857-924 W894F): T1 sequence (Q5HZG4 857-924 S880A) with A24S, W38F
Source text: as §1, §2

[3] = target: T3, PHF8 PHD (37–102, GST-tagged) (Homo sapiens, UniProt Q9UPP1); assay: ITC of GST-tagged PHF8 PHD
T3 construct: PHF8 (37–102); made in house; host or cells: E. coli BL21(DE3)
T3 sequence (Q9UPP1 37-102): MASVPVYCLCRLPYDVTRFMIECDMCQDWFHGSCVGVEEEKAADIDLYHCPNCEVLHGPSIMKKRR
Source text: as §1, §2

[4] = target: T4, TAF3 W894I (GST-tagged PHD) (Mus musculus, UniProt Q5HZG4, W894I); assay: ITC of GST-tagged Taf3-PHD W894I
T4 construct: Mus musculus Taf3-PHD domain (residues 857–924); made in house; host or cells: E. coli BL21(DE3)
T4 sequence (Q5HZG4 857-924 W894I): T1 sequence (Q5HZG4 857-924 S880A) with A24S, W38I
Source text: as §1, §2

[5] = target: T5, TAF3 A902L (GST-tagged PHD) (Mus musculus, UniProt Q5HZG4, A902L); assay: ITC of GST-tagged Taf3-PHD A902L
T5 construct: Mus musculus Taf3-PHD domain (residues 857–924); made in house; host or cells: E. coli BL21(DE3)
T5 sequence (Q5HZG4 857-924 A902L): T1 sequence (Q5HZG4 857-924 S880A) with A24S, A46L
Source text: as §1, §2

[6] = target: T6, TAF3 P881E (GST-tagged PHD) (Mus musculus, UniProt Q5HZG4, P881E); assay: ITC of GST-tagged Taf3-PHD P881E
T6 construct: Mus musculus Taf3-PHD domain (residues 857–924); made in house; host or cells: E. coli BL21(DE3)
T6 sequence (Q5HZG4 857-924 P881E): T1 sequence (Q5HZG4 857-924 S880A) with A24S, P25E
Source text: as §1, §2

[7] = target: T7, TAF3 WT (GST-tagged Taf3-PHD, residues 857–924) (Mus musculus, UniProt Q5HZG4); assay: ITC of GST-tagged Taf3-PHD wild type
T7 construct: Mus musculus Taf3-PHD domain (residues 857–924); made in house; host or cells: E. coli BL21(DE3)
T7 sequence (Q5HZG4 857-924): T1 sequence (Q5HZG4 857-924 S880A) with A24S
Source text: as §1, §2

[8] = target: T8, PHF2 PHD (1–66, GST-tagged) (Homo sapiens, UniProt O75151); assay: ITC of GST-tagged PHF2 PHD
T8 construct: PHF2 (1–66); made in house; host or cells: E. coli BL21(DE3)
T8 sequence (O75151 1-66): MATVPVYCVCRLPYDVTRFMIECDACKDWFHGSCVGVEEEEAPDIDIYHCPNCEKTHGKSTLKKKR
Source text: as §1, §2

[9] = ITC, 20°C, 100 mM NaCl, 20 mM Tris–HCl, pH 7.5, one-site model, ± = standard error of fit, read-out: K D

| Kd [1, 9] [nM] | Kd [2, 9] [nM] | Kd [3, 9] [nM] | Kd [4, 9] [nM] | Kd [5, 9] [nM] | Kd [6, 9] [nM] | Kd ([7]; ITC, 20°C, 100 mM NaCl, 20 mM Tris–HCl, pH 7.5, 300 μM peptide into 30 or 15 μM GST-PHD, one-site model, ± = standard error of fit, representative experiment, read-out: K D) [nM] | Kd [8, 9] [nM] | SMILES | Kd [1] [nM] | Kd [2] [nM] | Kd [3] [nM] | Kd [4] [nM] | Kd [5] [nM] | Kd [6] [nM] | Kd [7] [nM] | Kd [8] [nM] |
| --- | --- | --- | --- | --- | --- | --- | --- | --- | --- | --- | --- | --- | --- | --- | --- | --- |
|  |  |  |  |  |  |  |  | C[C@H](N)C(=O)N[C@@H](CCCNC(=N)N)C(=O)N[C@H](C(=O)N[C@@H](CCCC[N+](C)(C)C)C(=O)N[C@@H](CCC(=O)NCCc1c[nH]c2ccc(O)cc12)C(=O)N[C@H](C(=O)N[C@@H](C)C(=O)N[C@@H](CCCNC(=N)N)C(=O)N[C@@H](CCCCN)C(=O)N[C@@H](CO)C(=O)N[C@H](C(=O)NCC(N)=O)[C@@H](C)O)[C@@H](C)O)[C@@H](C)O [H3K4me3Q5ser] | 65 ± 5 | 102 ± 1 | 275 ± 19 | 106 ± 8 | 51 ± 3 | 136 ± 4 | 98 ± 8 | 201 ± 22 |
| 207 ± 34 | 126 ± 12 | 418 ± 20 | 279 ± 17 | 166 ± 17 | 148 ± 4 | 260 ± 16 | 286 ± 23 | C[C@H](N)C(=O)N[C@@H](CCCNC(=N)N)C(=O)N[C@H](C(=O)N[C@@H](CCCC[N+](C)(C)C)C(=O)N[C@@H](CCC(N)=O)C(=O)N[C@H](C(=O)N[C@@H](C)C(=O)N[C@@H](CCCNC(=N)N)C(=O)N[C@@H](CCCCN)C(=O)N[C@@H](CO)C(=O)N[C@H](C(=O)NCC(N)=O)[C@@H](C)O)[C@@H](C)O)[C@@H](C)O [H3K4me3] |  |  |  |  |  |  |  |  |
